The target of one series is T1, CYP1A2 (Homo sapiens, UniProt P05177).
T1 construct: enzyme, pooled human hepatic microsome 0.2 mg protein/mL; from tissue; host or cells: pooled human liver microsomes
T1 sequence (P05177 1-516): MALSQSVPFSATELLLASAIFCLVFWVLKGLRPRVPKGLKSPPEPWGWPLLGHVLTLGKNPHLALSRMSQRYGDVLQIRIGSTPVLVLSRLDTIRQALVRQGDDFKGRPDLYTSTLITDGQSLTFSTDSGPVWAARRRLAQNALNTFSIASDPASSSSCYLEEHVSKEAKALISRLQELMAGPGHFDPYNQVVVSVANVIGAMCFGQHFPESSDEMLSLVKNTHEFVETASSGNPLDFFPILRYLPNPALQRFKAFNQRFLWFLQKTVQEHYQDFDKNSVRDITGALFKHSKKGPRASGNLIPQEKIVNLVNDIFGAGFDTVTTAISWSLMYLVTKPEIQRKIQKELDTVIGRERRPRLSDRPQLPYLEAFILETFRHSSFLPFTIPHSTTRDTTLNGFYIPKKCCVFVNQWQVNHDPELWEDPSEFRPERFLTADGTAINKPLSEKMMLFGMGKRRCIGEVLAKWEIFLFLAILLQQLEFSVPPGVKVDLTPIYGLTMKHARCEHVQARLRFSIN
Nature of the series: Test Example 6: CYP inhibition test, 7-ethoxyresorufin O-deethylation (CYP1A2). Type of series: in vitro ADME. The settings on record: pooled human hepatic microsome, 0.5 μmol/L ethoxyresorufin. As for the experimental part:
(§1) Test Example 6 CYP Inhibition Test […] The reaction conditions were as follows: substrate, 0.5 μmol/L ethoxyresorufin (CYP1A2), 100 μmol/L tolbutamide (CYP2C9), 50 μmol/L S-mephenytoin (CYP2C19), 5 μmol/L dextromethorphan (CYP2D6), 1 μmol/L terfenedine (CYP3A4); reaction time, 15 minutes; reaction temperature, 37° C.; enzyme, pooled human hepatic microsome 0.2 mg protein/mL; concentration of the compound of the present invention, 1, 5, 10, 20 μmol/L (four points). Each five kinds of substrates, human hepatic microsome, and the compound of the present invention in 50 mmol/L Hepes buffer as a reaction solution were added to a 96-well plate at the composition as described above. NADPH, as a cofactor was added to initiate metabolism reactions as markers and, after the incubation at 37° C. for 15 minutes, a methanol/acetonitrile=1/1 (v/v) solution was added to stop the reaction. After the centrifugation at 3000 rpm for 15 minutes, resorufin (CYP1A2 metabolite) in the supernatant was quantified by a fluorescent multilabel counter and toltributamide hydroxide (CYP2[…] metabolite), mephenytoin 4' hydroxide (CYP2C19 metabolite), […], and terfenadine alcohol (CYP3A4 metabolite) were quantified by LC/MS/MS. Addition of only DMSO being a solvent dissolving the compound of the present invention to a reaction system was adopted as a control (100%). Remaining activity (%) was calculated at each concentration of the compound of the present invention added as the solution and IC50 was calculated by reverse presumption by a logistic model using a concentration and an inhibition rate.

The target of the next series is T2, CYP2C9 (Homo sapiens, UniProt P11712).
T2 construct: enzyme, pooled human hepatic microsome 0.2 mg protein/mL; from tissue; host or cells: pooled human liver microsomes
T2 sequence (P11712 whole entry): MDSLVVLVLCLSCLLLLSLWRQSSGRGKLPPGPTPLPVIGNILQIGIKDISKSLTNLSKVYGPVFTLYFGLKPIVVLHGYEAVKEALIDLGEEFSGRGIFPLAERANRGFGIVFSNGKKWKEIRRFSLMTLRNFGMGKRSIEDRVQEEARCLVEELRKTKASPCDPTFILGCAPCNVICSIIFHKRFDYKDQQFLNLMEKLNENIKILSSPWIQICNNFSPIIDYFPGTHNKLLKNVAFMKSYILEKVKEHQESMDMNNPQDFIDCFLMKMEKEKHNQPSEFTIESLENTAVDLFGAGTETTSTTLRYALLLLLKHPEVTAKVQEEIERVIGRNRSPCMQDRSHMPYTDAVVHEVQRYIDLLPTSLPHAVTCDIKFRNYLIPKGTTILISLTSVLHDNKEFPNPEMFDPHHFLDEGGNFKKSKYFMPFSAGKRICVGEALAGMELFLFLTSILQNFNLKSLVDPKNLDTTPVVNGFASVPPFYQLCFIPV
Nature of the series: Test Example 6: CYP inhibition test, tolbutamide methyl-hydroxylation (CYP2C9). Type of series: in vitro ADME. The settings on record: pooled human hepatic microsome, 100 μmol/L tolbutamide. As for the experimental part:
as §1

For a further series, the target named is T3, CYP2D6 (Homo sapiens, UniProt P10635).
T3 construct: enzyme, pooled human hepatic microsome 0.2 mg protein/mL; from tissue; host or cells: pooled human liver microsomes
T3 sequence (P10635 whole entry): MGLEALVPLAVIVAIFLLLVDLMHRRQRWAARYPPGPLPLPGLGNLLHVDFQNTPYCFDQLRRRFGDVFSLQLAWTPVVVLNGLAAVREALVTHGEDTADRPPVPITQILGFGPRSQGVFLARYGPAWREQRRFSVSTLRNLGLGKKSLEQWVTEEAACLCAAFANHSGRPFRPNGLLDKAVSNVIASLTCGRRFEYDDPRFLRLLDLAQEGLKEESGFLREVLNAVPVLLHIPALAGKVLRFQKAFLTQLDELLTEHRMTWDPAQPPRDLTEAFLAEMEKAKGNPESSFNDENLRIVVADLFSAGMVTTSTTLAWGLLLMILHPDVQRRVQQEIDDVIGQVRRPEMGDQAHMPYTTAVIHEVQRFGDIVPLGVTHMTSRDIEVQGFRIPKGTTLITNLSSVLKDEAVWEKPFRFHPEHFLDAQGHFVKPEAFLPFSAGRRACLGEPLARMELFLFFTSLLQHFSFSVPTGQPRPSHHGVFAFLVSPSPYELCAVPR
Nature of the series: Test Example 6: CYP inhibition test, dextromethorphan O-demethylation (CYP2D6). The format is in vitro ADME. As to conditions: pooled human hepatic microsome, 5 μmol/L dextromethorphan. As for the experimental part: as §1

In another series the target is T4, CYP3A4 (Homo sapiens, UniProt P08684).
T4 construct: enzyme, pooled human hepatic microsome 0.2 mg protein/mL; from tissue; host or cells: pooled human liver microsomes
T4 sequence (P08684 whole entry): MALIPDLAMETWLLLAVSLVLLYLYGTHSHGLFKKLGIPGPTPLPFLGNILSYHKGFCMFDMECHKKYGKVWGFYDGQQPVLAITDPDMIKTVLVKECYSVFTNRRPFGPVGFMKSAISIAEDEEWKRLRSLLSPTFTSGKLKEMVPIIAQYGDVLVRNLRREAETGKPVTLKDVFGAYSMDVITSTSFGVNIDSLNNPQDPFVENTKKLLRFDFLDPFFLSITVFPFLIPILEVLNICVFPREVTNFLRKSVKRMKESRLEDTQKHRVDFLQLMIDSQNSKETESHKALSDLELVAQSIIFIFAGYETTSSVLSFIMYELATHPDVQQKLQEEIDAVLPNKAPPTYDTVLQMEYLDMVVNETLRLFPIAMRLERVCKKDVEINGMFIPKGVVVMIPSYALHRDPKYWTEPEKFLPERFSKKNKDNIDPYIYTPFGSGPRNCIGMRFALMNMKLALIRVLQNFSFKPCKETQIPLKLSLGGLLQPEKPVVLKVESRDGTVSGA
The experiment in a line: Test Example 6: CYP inhibition test, terfenedine hydroxylation (CYP3A4). As to conditions: pooled human hepatic microsome, 1 μmol/L terfenedine. Type of series: in vitro ADME. As to the method: as §1

Series [1] addresses T5, human TRPV4 (hTRPV4/CHO cells) (Homo sapiens, UniProt Q9HBA0).
T5 construct: expressed in transfected cells; host or cells: CHO-K1
Nature of the series: Test Example 1: TRPV4 inhibitory activity (IC50 value), 4α-PDD stimulation, Fluo4 calcium fluorescence (FLIPR TETRA). The format is cell-based. The settings on record: Test Example 1, 4α-PDD stimulation, read-out: Test 1 IC50.

The target of a further series is T6, hERG (IKr) (Homo sapiens, UniProt Q12809).
T6 construct: expressed in transfected cells; host or cells: HEK293
T6 sequence (Q12809 whole entry): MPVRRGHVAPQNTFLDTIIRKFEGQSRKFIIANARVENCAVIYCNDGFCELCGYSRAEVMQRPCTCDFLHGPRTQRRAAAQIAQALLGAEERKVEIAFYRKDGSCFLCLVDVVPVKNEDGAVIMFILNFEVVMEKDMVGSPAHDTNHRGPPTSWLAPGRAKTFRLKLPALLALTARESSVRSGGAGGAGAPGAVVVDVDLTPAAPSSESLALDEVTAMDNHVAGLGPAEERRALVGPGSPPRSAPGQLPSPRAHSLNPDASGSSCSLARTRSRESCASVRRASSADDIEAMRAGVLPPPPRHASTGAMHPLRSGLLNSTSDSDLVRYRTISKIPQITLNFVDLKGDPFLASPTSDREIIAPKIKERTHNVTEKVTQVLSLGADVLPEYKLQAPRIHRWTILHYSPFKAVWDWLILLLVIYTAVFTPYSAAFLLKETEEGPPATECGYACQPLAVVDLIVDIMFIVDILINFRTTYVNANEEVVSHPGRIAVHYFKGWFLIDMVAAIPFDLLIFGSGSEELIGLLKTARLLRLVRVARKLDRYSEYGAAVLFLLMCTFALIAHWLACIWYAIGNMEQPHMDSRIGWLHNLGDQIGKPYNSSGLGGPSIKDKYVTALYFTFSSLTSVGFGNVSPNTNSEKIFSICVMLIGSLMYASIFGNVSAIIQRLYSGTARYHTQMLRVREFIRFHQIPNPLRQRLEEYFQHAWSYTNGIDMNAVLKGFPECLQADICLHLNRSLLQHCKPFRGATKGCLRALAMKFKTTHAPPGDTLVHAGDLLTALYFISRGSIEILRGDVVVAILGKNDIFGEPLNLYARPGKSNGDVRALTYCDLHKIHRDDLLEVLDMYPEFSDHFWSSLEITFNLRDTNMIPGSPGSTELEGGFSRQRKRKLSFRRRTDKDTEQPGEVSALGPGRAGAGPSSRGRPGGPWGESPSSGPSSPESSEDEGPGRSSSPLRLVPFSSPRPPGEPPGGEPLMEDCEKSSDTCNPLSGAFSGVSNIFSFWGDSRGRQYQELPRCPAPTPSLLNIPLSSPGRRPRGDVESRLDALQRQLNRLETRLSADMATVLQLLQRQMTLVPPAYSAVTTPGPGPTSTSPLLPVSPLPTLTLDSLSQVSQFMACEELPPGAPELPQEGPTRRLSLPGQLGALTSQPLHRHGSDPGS
The experiment in a line: Test Example 10: hERG test (IKr, whole cell patch clamp). Type of series: cell-based. As to conditions: HEK293 cells expressing hERG channel, pH 7.4, 1 μmol/L of the compound, read-out: hERG % inhibition of tail peak current (IKr). From the text: For the purpose of assessing risk of an electrocardiogram QT interval prolongation of a compound of the present invention, effects of the compound of the present invention on delayed rectifier K^+ current (IKr), which plays an important role in the ventricular repolarization process, was studied using HEK293 cells expressing human ether-a-go-go related gene (hERG) channel.
After a cell was retained at a membrane potential of −80 mV by whole cell patch clamp method using an automated patch clamp system (PatchXpress 7000A, Axon Instruments Inc.), IKr induced by depolarization pulse stimulation at +40 mV for 2 seconds and, further, repolarization pulse stimulation at −50 mV for 2 seconds was recorded. […] From the recording IKr, an absolute value of the tail peak current was measured based on the current value at the resting membrane potential using an analysis software (DataXpress ver. 1, Molecular Devices Corporation). Further, the % inhibition relative to the tail peak current before application of the compound of the present invention was calculated, and compared with the vehicle-applied group (0.1% dimethyl sulfoxide solution) to assess influence of the compound of the present invention on IKr. […]
(hERG is a cardiac potassium channel; its block is linked to QT prolongation.)

SMILES strings stand for the structures.

T5 sequence (Q9HBA0 whole entry): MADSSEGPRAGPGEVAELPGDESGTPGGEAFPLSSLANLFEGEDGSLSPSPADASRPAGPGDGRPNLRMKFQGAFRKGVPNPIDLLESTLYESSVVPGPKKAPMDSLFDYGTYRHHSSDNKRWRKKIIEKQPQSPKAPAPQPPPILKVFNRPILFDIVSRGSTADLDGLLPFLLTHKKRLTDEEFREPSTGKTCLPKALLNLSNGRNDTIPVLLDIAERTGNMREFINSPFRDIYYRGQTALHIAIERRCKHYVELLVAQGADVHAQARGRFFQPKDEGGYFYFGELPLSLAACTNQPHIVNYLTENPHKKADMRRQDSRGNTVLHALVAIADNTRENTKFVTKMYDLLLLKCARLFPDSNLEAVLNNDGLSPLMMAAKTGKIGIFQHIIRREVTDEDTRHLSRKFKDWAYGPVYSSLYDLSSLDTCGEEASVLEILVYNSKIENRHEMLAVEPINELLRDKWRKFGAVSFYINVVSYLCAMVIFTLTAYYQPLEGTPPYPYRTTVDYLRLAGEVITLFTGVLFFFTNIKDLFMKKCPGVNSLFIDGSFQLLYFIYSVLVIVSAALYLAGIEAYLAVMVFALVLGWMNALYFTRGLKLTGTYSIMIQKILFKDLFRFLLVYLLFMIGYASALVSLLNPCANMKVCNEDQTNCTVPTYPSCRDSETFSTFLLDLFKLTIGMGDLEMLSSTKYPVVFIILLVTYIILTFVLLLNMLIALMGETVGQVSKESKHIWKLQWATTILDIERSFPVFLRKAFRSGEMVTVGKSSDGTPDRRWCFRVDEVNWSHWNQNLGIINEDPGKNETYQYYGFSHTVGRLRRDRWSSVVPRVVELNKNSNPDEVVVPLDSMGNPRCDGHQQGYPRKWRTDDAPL

Broadly, the IC50 is the concentration needed to halve the response being measured. On to `Cc1nc(C)c(-c2csc(NC(=O)Cc3ccc(S(C)(=O)=O)cc3)n2)s1` [Compound I-17], for which the IC50 on CYP1A2, against CYP2C9, against CYP2D6 and against CYP3A4 was > 20 µM throughout.

The inhibition is the drop in the measured response relative to a control, in per cent. With `Cc1nc(C)c(-c2csc(NC(=O)C3CCC(F)(F)C3)n2)s1` (stereo not drawn) [Compound I-18], the half-inhibitory concentration (IC50) in series [1] fell in the range of 0.1 to 1 µM. Also, the inhibition at 10 min, 1 μmol/L at hERG (IKr) was 6.1%.

The values above are taken from patent US20170066759A1, “AROMATIC 5-MEMBERED HETEROCYCLIC DERIVATIVE HAVING TRPV4-INHIBITING ACTIVITY” (Shionogi & Co., Ltd., priority 2012, published 2017).
